Patent US9725468B2, “C5-spiro iminothiazine dioxides as BACE inhibitors, compositions, and their use” (Merck Sharp & Dohme Corp., priority 2013, dated 2017)

Tests used:
[1] = biological target: soluble human BACE1 catalytic domain (Homo sapiens, UniProt P56817); assay: BACE1 HTRF FRET Assay; format: biochemical; settings: Ki calculated from IC50 using the Cheng-Prusoff equation; QSY7-APPswe-Eu substrate 200 nM, pH 5.0
Source text: Na^+-Acetate pH 5.0; 1% Brij-35; Glycerol; Dimethyl Sulfoxide (DMSO); Recombinant human soluble BACE1 catalytic domain (>95% pure); APP Swedish mutant peptide substrate (QSY7-APP^swe-Eu): QSY7-EISEVNLDAEFC-Europium-amide.
A homogeneous time-resolved FRET assay can be used to determine IC50 values for inhibitors of the soluble human BACE1 catalytic domain. This assay monitors the increase of 620 nm fluorescence that resulted from BACE1 cleavage of an APPswedish APP^swe mutant peptide FRET substrate (QSY7-EISEVNLDAEFC-Europium-amide). This substrate contains an N-terminal QSY7 moiety that serves as a quencher of the C-terminal Europium fluorophore (620 nm Em). In the absence of enzyme activity, 620 nm fluorescence is low in the assay and increased linearly over 3 hours in the presence of uninhibited BACE1 enzyme. Inhibition of BACE1 cleavage of the QSY7-APP^swe-Eu substrate by inhibitors is manifested as a suppression of 620 nm fluorescence.
Varying concentrations of inhibitors at 3× the final desired concentration in a volume of 10 ul are preincubated with purified human BACE1 catalytic domain (3 nM in 10 μl) for 30 minutes at 30° C. in reaction buffer containing 20 mM Na-Acetate pH 5.0, 10% glycerol, 0.1% Brij-35 and 7.5% DSMO. Reactions are initiated by addition of 10 μl of 600 nM QSY7-APP^swe-Eu substrate (200 nM final) to give a final reaction volume of 30 μl in a 384 well Nunc HTRF plate. The reactions are incubated at 30° C. for 1.5 hours. The 620 nm fluorescence is then read on a Rubystar HTRF plate reader (BMG Labtechnologies) using a 50 millisecond delay followed by a 400 millisecond acquisition time window. Inhibitor IC50 values are derived from non-linear regression analysis of concentration response curves. Ki values are then calculated from IC50 values using the Cheng-Prusoff equation using a previously determined […] for the QSY7-APP^swe-Eu substrate at BACE1.

[2] = biological target: T1, purified human autoBACE-2 (Homo sapiens, UniProt Q9Y5Z0); assay: BACE-2 Assay (BACE-HTRF assay); format: biochemical; settings: Ki calculated from IC50 using the Cheng-Prusoff equation; QSY7-EISEVNLDAEFC-Eu-amide substrate 200 nM, pH 5.0; read-out: BACE2 Ki
T1 sequence (Q9Y5Z0 63-473 limits assumed): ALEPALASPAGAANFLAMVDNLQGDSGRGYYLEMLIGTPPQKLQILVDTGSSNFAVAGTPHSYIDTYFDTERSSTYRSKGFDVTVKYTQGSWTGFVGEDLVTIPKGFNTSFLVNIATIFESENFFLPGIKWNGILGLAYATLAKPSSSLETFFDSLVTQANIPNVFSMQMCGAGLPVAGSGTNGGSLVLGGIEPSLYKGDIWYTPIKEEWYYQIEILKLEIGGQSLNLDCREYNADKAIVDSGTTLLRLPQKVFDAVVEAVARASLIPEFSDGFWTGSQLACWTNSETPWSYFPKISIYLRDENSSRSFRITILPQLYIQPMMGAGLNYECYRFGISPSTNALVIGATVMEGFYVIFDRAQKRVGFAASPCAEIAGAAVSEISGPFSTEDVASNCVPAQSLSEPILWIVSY
Method: Inhibitor ICsos at purified human autoBACE-2 are determined in a time-resolved endpoint proteolysis assay that measures hydrolysis of the QSY7-EISEVNLDAEFC-Eu-amide FRET peptide substrate (BACE-HTRF assay). BACE-mediated hydrolysis of this peptide results in an increase in relative fluorescence (RFU) at 620 nm after excitation with 320 nm light. Inhibitor compounds, prepared at 3× the desired final concentration in 1×BACE assay buffer (20 mM sodium acetate pH 5.0, 10% glycerol, 0.1% Brij-35) supplemented with 7.5% DMSO are preincubated with an equal volume of autoBACE-2 enzyme diluted in 1×BACE assay buffer (final enzyme concentration 1 nM) in black 384-well NUNC plates for 30 minutes at 30° C. The assay is initiated by addition of an equal volume of the QSY7-EISEVNLDAEFC-Eu-amide substrate (200 nM final concentration, […]) prepared in 1×BACE assay buffer supplemented with 7.5% DMSO and incubated for 90 minutes at 30° C. DMSO is present at 5% final concentration in the assay. Following laser excitation of sample wells at 320 nm, the fluorescence signal at 620 nm is collected for 400 ms following a 50 μs delay on a RUBYstar HTRF plate reader (BMG Labtechnologies). Raw RFU data is normalized to maximum (1.0 nM BACE/DMSO) and minimum (no enzyme/DMSO) RFU values. IC50s are determined by nonlinear regression analysis (sigmoidal dose response, variable slope) of percent inhibition data with minimum and maximum values set to 0 and 100 percent respectively. Similar IC50s are obtained when using raw RFU data. The Ki values are calculated from the IC50 using the Cheng-Prusoff equation.

soluble human BACE1 catalytic domain, sequence (P56817 75-416 limits assumed): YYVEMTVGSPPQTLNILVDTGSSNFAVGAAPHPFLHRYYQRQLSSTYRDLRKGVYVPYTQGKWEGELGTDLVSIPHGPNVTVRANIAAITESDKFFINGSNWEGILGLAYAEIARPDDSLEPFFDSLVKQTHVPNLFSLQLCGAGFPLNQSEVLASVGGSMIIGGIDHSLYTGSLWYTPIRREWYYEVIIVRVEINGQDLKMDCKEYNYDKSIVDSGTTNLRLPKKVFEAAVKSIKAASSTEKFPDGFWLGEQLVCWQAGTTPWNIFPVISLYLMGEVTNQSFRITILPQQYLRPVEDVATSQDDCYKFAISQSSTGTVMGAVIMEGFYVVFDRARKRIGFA

SMILES	Ki [1] [µM]	Ki [2] [µM]
CC1(C)C(=N)N[C@@]2(COCc3ccc(NC(=O)c4ccc(F)cn4)cc32)CS1(=O)=O [Example E-13]	0.127	0.017
CC1(C)C(=N)N[C@@]2(COCc3ccc(NC(=O)c4ccc(C#N)cn4)cc32)CS1(=O)=O [Example E-14]	0.011	0.035
CC1(C)C(=N)N[C@@]2(COCc3ccc(NC(=O)c4ncc(Cl)cc4F)cc32)CS1(=O)=O [Example E-15]	0.037	0.005
CC1(C)C(=N)N[C@@]2(COCc3ccc(NC(=O)c4cnc(OCC(F)(F)F)cn4)cc32)CS1(=O)=O [Example E-16]	0.101	0.402
CC1(C)C(=N)N[C@@]2(COCc3ccc(NC(=O)c4cnc(OCCF)cn4)cc32)CS1(=O)=O [Example E-17]	0.326	0.443
CC1(C)C(=N)N[C@@]2(COCc3ccc(NC(=O)c4ccc(OC(F)F)cn4)cc32)CS1(=O)=O [Example E-18]	0.034	0.076
C#CCOc1ccc(C(=O)Nc2ccc3c(c2)[C@]2(COC3)CS(=O)(=O)C(C)(C)C(=N)N2)nc1 [Example E-19]	0.03	0.185
COc1cnc(C(=O)Nc2ccc3c(c2)[C@]2(COC3)CS(=O)(=O)C(C)(C)C(=N)N2)c(C)n1 [Example E-20]	0.218	0.06
CC1(C)C(=N)N[C@@]2(COCc3ccc(NC(=O)c4cnc(C(F)(F)F)cn4)cc32)CS1(=O)=O [Example E-21]	0.231	0.583
COc1cnc(C(=O)Nc2ccc3c(c2)[C@]2(COC3)CS(=O)(=O)C(C)(C)C(=N)N2)cn1 [Example E-22]	0.334	0.187
Cc1nc(C(=O)Nc2ccc3c(c2)[C@]2(COC3)CS(=O)(=O)C(C)(C)C(=N)N2)co1 [Example E-23]	0.066	0.007
CC1(C)C(=N)N[C@@]2(COCc3ccc(NC(=O)c4ccc(OCF)cn4)cc32)CS1(=O)=O [Example E-24]	0.057	0.013
CC1(C)C(=N)N[C@@]2(CCCc3ccc(NC(=O)c4ccc(Cl)cn4)cc32)CS1(=O)=O [Example F-1]	0.011	0.003

Next, values leading:

Ki [1] [µM]	Ki [2] [µM]	SMILES
0.011	0.002	CC1(C)C(=N)N[C@@]2(CCCc3ccc(NC(=O)c4ncc(Cl)cc4F)cc32)CS1(=O)=O [Example G-1]
0.035	0.007	CC1(C)C(=N)N[C@@]2(CCCc3ccc(NC(=O)c4cnsn4)cc32)CS1(=O)=O [Example G-2]
0.503	0.074	CC1(C)C(=N)N[C@@]2(CCCc3ccc(NC(=O)c4cc5ccccn5n4)cc32)CS1(=O)=O [Example G-3]
0.004	0.001	CC1(C)C(=N)N[C@@]2(CCCc3ccc(NC(=O)c4ccn(C(F)F)n4)cc32)CS1(=O)=O [Example G-4]
0.007	0.02	C#CCOc1cnc(C(=O)Nc2ccc3c(c2)[C@]2(CCC3)CS(=O)(=O)C(C)(C)C(=N)N2)cn1 [Example G-5]
0.017	0.001	Cn1cc(Cl)c(C(=O)Nc2ccc3c(c2)[C@]2(CCC3)CS(=O)(=O)C(C)(C)C(=N)N2)n1 [Example G-6]
0.01	0.051	C#CCOc1ccc(C(=O)Nc2ccc3c(c2)[C@]2(CCC3)CS(=O)(=O)C(C)(C)C(=N)N2)nc1 [Example G-7]
0.019	0.002	COc1cnc(C(=O)Nc2ccc3c(c2)[C@]2(CCC3)CS(=O)(=O)C(C)(C)C(=N)N2)c(C)c1 [Example G-8]
0.064	0.017	COc1cnc(C(=O)Nc2ccc3c(c2)[C@]2(CCC3)CS(=O)(=O)C(C)(C)C(=N)N2)c(C)n1 [Example G-9]
0.002	0.003	Cc1cc(C#N)cnc1C(=O)Nc1ccc2c(c1)[C@]1(CCC2)CS(=O)(=O)C(C)(C)C(=N)N1 [Example G-10]
0.092	0.057	COc1cnc(C(=O)Nc2ccc3c(c2)[C@]2(CCC3)CS(=O)(=O)C(C)(C)C(=N)N2)cn1 [Example G-11]
0.057	0.163	CC1(C)C(=N)N[C@@]2(CCCc3ccc(NC(=O)c4cnc(C(F)(F)F)cn4)cc32)CS1(=O)=O [Example G-12]
0.083	0.006	Cc1nc(C(=O)Nc2ccc3c(c2)[C@]2(CCC3)CS(=O)(=O)C(C)(C)C(=N)N2)no1 [Example G-13]
0.055	0.007	CC1(C)C(=N)N[C@@]2(CCCc3ccc(NC(=O)c4ccc(F)cn4)cc32)CS1(=O)=O [Example G-14]
0.012	0.022	CC1(C)C(=N)N[C@@]2(CCCc3ccc(NC(=O)c4ccc(OC(F)F)cn4)cc32)CS1(=O)=O [Example G-15]
0.013	0.051	CC1(C)C(=N)N[C@@]2(CCCc3ccc(NC(=O)c4ccc(OC(F)(F)F)cn4)cc32)CS1(=O)=O [Example G-16]
0.14	0.156	CC1(C)C(=N)N[C@@]2(CCCc3ccc(NC(=O)c4cnc(OCCF)cn4)cc32)CS1(=O)=O [Example G-17]
0.018	0.007	CC1(C)C(=N)N[C@@]2(CCCc3ccc(NC(=O)c4ccc(OCF)cn4)cc32)CS1(=O)=O [Example G-18]
0.021	0.003	Cc1nc(C(=O)Nc2ccc3c(c2)[C@]2(CCC3)CS(=O)(=O)C(C)(C)C(=N)N2)co1 [Example G-19]
0.031	0.007	COc1ccc(C(=O)Nc2ccc3c(c2)[C@]2(CCC3)CS(=O)(=O)C(C)(C)C(=N)N2)nc1 [Example G-20]
0.004	0.012	CC1(C)C(=N)N[C@@]2(CCCc3ccc(NC(=O)c4ccc(C#N)cn4)cc32)CS1(=O)=O [Example G-21]
0.16	0.161	CC1(C)C(=N)N[C@@]2(CCCc3ccc(NC(=O)c4ncc(C(F)(F)F)cn4)cc32)CS1(=O)=O [Example G-22]
0.138	1.12	CC1(C)C(=N)N[C@@]2(CCCc3ccc(NC(=O)c4cn5cc(C#N)ccc5n4)cc32)CS1(=O)=O [Example G-23]
0.008	0.03	CC1(C)C(=N)N[C@@]2(CCCc3ccc(NC(=O)c4ccc(C(F)(F)F)cn4)cc32)CS1(=O)=O [Example G-24]
